system: Hepatotoxicity; test: Human drug-induced liver injury (DILI) modelling dataset from Ekins et al; settings: not given

| Structure (SMILES) | Hepatotoxicity |
| --- | --- |
| C[C@H]1O[C@@H](O[C@H]2[C@@H](O)C[C@H](O[C@H]3[C@@H](O)C[C@H](O[C@H]4CC[C@@]5(C)[C@H](CC[C@@H]6[C@@H]5C[C@@H](O)[C@]5(C)[C@@H](C7=CC(=O)OC7)CC[C@]65O)C4)O[C@@H]3C)O[C@@H]2C)C[C@H](O)[C@@H]1O [DIGOXIN] | DILI negative (training set) |
| COc1ccc([C@@H]2Sc3ccccc3N(CCN(C)C)C(=O)[C@@H]2OC(C)=O)cc1.Cl [DILTIAZEM HYDROCHLORIDE] | DILI negative (training set) |
| O=C1CCC(=O)N1c1cc(Cl)cc(Cl)c1 [DIMETHACHLON] | DILI positive (test set) |
| CCOC(=O)C1(c2ccccc2)CCN(CCC(C#N)(c2ccccc2)c2ccccc2)CC1.Cl [DIPHENOXYLATE HYDROCHLORIDE] | DILI negative (test set) |
| CC(C)N(CCC(C(N)=O)(c1ccccc1)c1ccccn1)C(C)C.O=P(O)(O)O (centres undefined) [DISOPYRAMIDE PHOSPHATE] | DILI positive (training set) |
| CC(CCc1ccc(O)cc1)NCCc1ccc(O)c(O)c1.Cl (centres undefined) [DOBUTAMINE HYDROCHLORIDE] | DILI negative (training set) |
| COc1cc2c(cc1OC)C(=O)C(CC1CCN(Cc3ccccc3)CC1)C2 (centres undefined) [DONEPEZIL] | DILI negative (training set) |
| COc1cccc2c1C(=O)c1c(O)c3c(c(O)c1C2=O)C[C@@](O)(C(=O)CO)C[C@@H]3O[C@H]1C[C@H](N)[C@H](O)[C@H](C)O1.Cl [DOXORUBICIN HYDROCHLORIDE] | DILI positive (test set) |
| COc1cccc2c1C(=O)c1c(O)c3c(c(O)c1C2=O)C[C@@](O)(C(=O)CO)C[C@@H]3O[C@H]1C[C@H](N)[C@H](O)[C@H](C)O1 [DOXORUBICIN] | DILI negative (test set) |
| Clc1ccc(COC(Cn2ccnc2)c2ccc(Cl)cc2Cl)cc1.O=[N+]([O-])O (centres undefined) [ECONAZOLE NITRATE] | DILI negative (test set) |
| CC[N+](C)(C)c1cccc(O)c1.[Cl-] [EDROPHONIUM CHLORIDE] | DILI negative (training set) |
| CCN(CC)C(=O)/C(C#N)=C/c1cc(O)c(O)c([N+](=O)[O-])c1 [ENTACAPONE] | DILI negative (test set) |
| COc1cccc2c1C(=O)c1c(O)c3c(c(O)c1C2=O)C[C@@](O)(C(=O)CO)C[C@@H]3O[C@H]1C[C@H](N)[C@@H](O)[C@H](C)O1 [EPIRUBICIN] | DILI negative (test set) |
| CCCCc1ncc(/C=C(\Cc2cccs2)C(=O)O)n1Cc1ccc(C(=O)O)cc1 [EPROSARTAN] | DILI negative (test set) |
| C[C@@H](CO)NC(=O)[C@@H]1C=C2c3cccc4[nH]cc(c34)C[C@H]2N(C)C1.O=C(O)/C=C\C(=O)O [ERGONOVINE MALEATE] | DILI negative (training set) |
| CN1C[C@H](C(=O)N[C@]2(C)O[C@@]3(O)[C@@H]4CCCN4C(=O)[C@H](Cc4ccccc4)N3C2=O)C=C2c3cccc4[nH]cc(c34)C[C@H]21.CN1C[C@H](C(=O)N[C@]2(C)O[C@@]3(O)[C@@H]4CCCN4C(=O)[C@H](Cc4ccccc4)N3C2=O)C=C2c3cccc4[nH]cc(c34)C[C@H]21.O=C(O)C(O)C(O)C(=O)O [ERGOTAMINE TARTRATE] | DILI negative (test set) |
| CCC(=O)O[C@H]1[C@H](O[C@@H]2[C@@H](C)[C@H](O[C@H]3C[C@@](C)(OC)[C@@H](O)[C@H](C)O3)[C@@H](C)C(=O)O[C@H](CC)[C@@](C)(O)[C@H](O)[C@@H](C)C(=O)[C@H](C)C[C@@]2(C)O)O[C@H](C)C[C@@H]1N(C)C.CCCCCCCCCCCCOS(=O)(=O)O [ERYTHROMYCIN ESTOLATE] | DILI positive (training set) |
| CC[C@H]1OC(=O)[C@H](C)[C@@H](O[C@H]2C[C@@](C)(OC)[C@@H](O)[C@H](C)O2)[C@H](C)[C@@H](O[C@@H]2O[C@H](C)C[C@H](N(C)C)[C@H]2O)[C@](C)(O)C[C@@H](C)C(=O)[C@H](C)[C@@H](O)[C@]1(C)O [ERYTHROMYCIN] | DILI negative (training set) |
| C[C@]12CC[C@@H]3c4ccc(O)cc4CC[C@H]3[C@@H]1CC[C@@H]2O[C@@H]1O[C@H](C(=O)O)[C@@H](O)[C@H](O)[C@H]1O [ESTRADIOL 17B GLUCURONIDE] | DILI positive (training set) |
| C[C@]12CC[C@@H]3c4ccc(O)cc4CC[C@H]3[C@@H]1CC[C@@H]2O [ESTRADIOL] | DILI negative (training set) |
| C[C@]12CC[C@@H]3c4ccc(O)cc4CC[C@H]3[C@@H]1CCC2=O [ESTRONE] | DILI positive (training set) |
| CS(=O)(=O)OCCOS(C)(=O)=O [ETHANE DIMETHANE SULFONATE] | DILI positive (test set) |
| C#C[C@]1(O)CC[C@H]2[C@@H]3CCc4cc(O)ccc4[C@H]3CC[C@@]21C [ETHINYL ESTRADIOL] | DILI positive (test set) |
| CCSCC[C@H](N)C(=O)O [ETHIONINE] | DILI positive (training set) |
| CCC1(C)CC(=O)NC1=O (centres undefined) [ETHOSUXIMIDE] | DILI positive (test set) |
| C#C[C@]1(OC(C)=O)CC[C@H]2[C@@H]3CCC4=C[C@@H](OC(C)=O)CC[C@@H]4[C@H]3CC[C@@]21C [ETHYNODIOL DIACETATE] | DILI positive (training set) |
| NC(=O)OCC(COC(N)=O)c1ccccc1 [FELBAMATE] | DILI positive (training set) |

| Structure (SMILES) | Hepatotoxicity |
| --- | --- |
| CC(C)OC(=O)C(C)(C)Oc1ccc(C(=O)c2ccc(Cl)cc2)cc1 [FENOFIBRATE] | DILI positive (training set) |
| CC(C(=O)[O-])c1cccc(Oc2ccccc2)c1.[Na+] (centres undefined) [FENOPROFEN SODIUM] | DILI positive (training set) |
| O=c1[nH]c(=O)n([C@@H]2O[C@H](CO)[C@@H](O)[C@@H]2F)cc1I [FIALURIDINE] | DILI positive (test set) |
| O=C(COc1ccc(Cl)cc1)N1CCN(Cc2ccc3c(c2)OCO3)CC1 [FIPEXIDE] | DILI positive (test set) |
| CC(=O)O.O=C(NCC1CCCCN1)c1cc(OCC(F)(F)F)ccc1OCC(F)(F)F (centres undefined) [FLECAINIDE ACETATE] | DILI positive (training set) |
| O=c1[nH]c(=O)n([C@H]2C[C@H](O)[C@@H](CO)O2)cc1F [FLOXURIDINE] | DILI positive (training set) |
| Nc1nc(=O)[nH]cc1F [FLUCYTOSINE] | DILI positive (training set) |
| CC(=O)OCC(=O)[C@@]1(O)CC[C@H]2[C@@H]3CCC4=CC(=O)CC[C@]4(C)[C@@]3(F)[C@@H](O)C[C@@]21C [FLUDROCORTISONE ACETATE] | DILI negative (training set) |
| O=C(O)c1ccccc1Nc1cccc(C(F)(F)F)c1 [FLUFENAMIC ACID] | DILI negative (test set) |
| CCOC(=O)c1ncn2c1CN(C)C(=O)c1cc(F)ccc1-2 [FLUMAZENIL] | DILI negative (training set) |
| C[C@H](C(=O)O)c1ccc2oc(-c3ccc(F)cc3)nc2c1 [FLUNOXAPROFEN] | DILI negative (test set) |
| O=c1[nH]cc(F)c(=O)[nH]1 [FLUOROURACIL] | DILI positive (test set) |
| CC(C(=O)O)c1ccc(-c2ccccc2)c(F)c1 (centres undefined) [FLURBIPROFEN] | DILI positive (training set) |
| CC(C)C(=O)Nc1ccc([N+](=O)[O-])c(C(F)(F)F)c1 [FLUTAMIDE] | DILI positive (training set) |
| COCCCC/C(=N\OCCN)c1ccc(C(F)(F)F)cc1 [FLUVOXAMINE] | DILI positive (training set) |
| Nc1nc2ncc(CNc3ccc(C(=O)N[C@@H](CCC(=O)O)C(=O)O)cc3)nc2c(=O)[nH]1 [FOLIC ACID] | DILI negative (training set) |
| O=C(O)P(=O)(O)O [FOSCARNET] | DILI negative (test set) |
| O=C1OCCN1/N=C/c1ccc([N+](=O)[O-])o1 [FURAZOLIDONE] | DILI positive (training set) |
| NCC1(CC(=O)O)CCCCC1 [GABAPENTIN] | DILI negative (training set) |
| CC[N+](CC)(CC)CCOc1cccc(OCC[N+](CC)(CC)CC)c1OCC[N+](CC)(CC)CC.[I-].[I-].[I-] [GALLAMINE TRIETHIODIDE] | DILI negative (training set) |
| COc1c(N2CCNC(C)C2)c(F)cc2c(=O)c(C(=O)O)cn(C3CC3)c12 (centres undefined) [GATIFLOXACIN] | DILI negative (training set) |
| COc1cc2ncnc(Nc3ccc(F)c(Cl)c3)c2cc1OCCCN1CCOCC1 [GEFITINIB] | DILI positive (test set) |
| Cc1ccc(C)c(OCCCC(C)(C)C(=O)O)c1 [GEMFIBROZIL] | DILI positive (training set) |
| Cc1ccc(S(=O)(=O)NC(=O)NN2CC3CCCC3C2)cc1 (centres undefined) [GLICLAZIDE] | DILI negative (training set) |
| CCC1=C(C)CN(C(=O)NCCc2ccc(S(=O)(=O)NC(=O)N[C@H]3CC[C@H](C)CC3)cc2)C1=O [GLIMEPIRIDE] | DILI negative (training set) |
| N[C@H]1C(O)O[C@H](CO)[C@@H](O)[C@@H]1O (some centres undefined) [GLUCOSAMINE] | DILI positive (training set) |

same assay, conditions: Liver

| Structure (SMILES) | Hepatotoxicity |
| --- | --- |
| OCC(S)CS (centres undefined) [DIMERCAPROL] | DILI positive (test set) |
| c1cc[n+]2c(c1)-c1cccc[n+]1CC2 [DIQUAT] | DILI positive (test set) |
| NCCc1ccc(O)c(O)c1 [DOPAMINE] | DILI negative (training set) |
| C=C1CC[C@H](O)C/C1=C/C=C1\CCC[C@]2(C)[C@@H]([C@H](C)/C=C/[C@H](C)C(C)C)CC[C@@H]12 [ERGOCALCIFEROL] | DILI negative (training set) |
| OCCO [ETHYLENE GLYCOL] | DILI positive (test set) |
| COc1cc([C@@H]2c3cc4c(cc3[C@@H](O[C@@H]3O[C@@H]5CO[C@@H](C)O[C@H]5[C@H](O)[C@H]3O)[C@H]3COC(=O)[C@H]23)OCO4)cc(OC)c1O [ETOPOSIDE] | DILI positive (training set) |
| NC(N)=Nc1nc(CSCCC(N)=NS(N)(=O)=O)cs1 [FAMOTIDINE] | DILI negative (training set) |
| CC(C)(C(=O)O)c1ccc(C(O)CCCN2CCC(C(O)(c3ccccc3)c3ccccc3)CC2)cc1 (centres undefined) [FEXOFENADINE] | DILI negative (test set) |
| OC(Cn1cncn1)(Cn1cncn1)c1ccc(F)cc1F [FLUCONAZOLE] | DILI positive (training set) |
| CC(C)n1c(/C=C/C(O)CC(O)CC(=O)O)c(-c2ccc(F)cc2)c2ccccc21 (centres undefined) [FLUVASTATIN] | DILI negative (training set) |
| O=C(OCC(O)CO)c1ccccc1Nc1ccnc2cc(Cl)ccc12 (centres undefined) [GLAFENINE] | DILI positive (training set) |

From ChEMBL document CHEMBL1697723, “A predictive ligand-based Bayesian model for human drug-induced liver injury” (Drug Metab Dispos, 2010)
